Measurements: US9133122B2, “Amide compounds, compositions and uses thereof” (EVOTEC AG, priority 2008, dated 2015)

Experiments:
hP2X3 = target: T1, hP2X3 (Homo sapiens, UniProt P56373); experiment: Calcium uptake assay (Ca influx), P2X antagonist assay, P2X3 homomer; format: cell-based; conditions: inhibition of agonist-induced calcium influx
T1 construct: expressed in transfected cells
T1 sequence (P56373 1-397): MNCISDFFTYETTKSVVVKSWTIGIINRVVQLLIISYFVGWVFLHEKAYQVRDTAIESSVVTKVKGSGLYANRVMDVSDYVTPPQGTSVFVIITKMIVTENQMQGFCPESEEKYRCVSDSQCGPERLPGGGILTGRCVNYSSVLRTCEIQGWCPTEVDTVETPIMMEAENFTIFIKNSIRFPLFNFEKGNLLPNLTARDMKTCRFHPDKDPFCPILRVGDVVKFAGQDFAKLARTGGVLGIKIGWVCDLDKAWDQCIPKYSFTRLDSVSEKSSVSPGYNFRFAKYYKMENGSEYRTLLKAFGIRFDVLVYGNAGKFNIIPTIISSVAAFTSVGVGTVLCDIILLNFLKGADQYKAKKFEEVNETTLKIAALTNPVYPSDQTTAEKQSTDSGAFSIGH
Excerpt: (§1) Human P2X3 (Accession no. NM_002559), P2X2 (Accession no. NM_170682) and Rat P2X3 (Accession no. NM_031075) and P2X2 (Accession no. NM_053656) are cloned into a mammalian expression vector (e.g., pcDNAS/TO or pcDNA3 Invitrogen). The human P2X2/3 chimera clone is created as described by Neelands et al, and then cloned into an expression vector as above. Receptors are expressed in cells (e.g., HEK293 or 1321N1 (obtained from the ECACC)) via transient transfection using standard lipid mediated transfection, or by creation of stable transfectants for each receptor. For expression of the P2X2/3 heteromeric receptor, the P2X3 expression vector is stably transfected into a cell line already stably expressing P2X2. P2X2/3 heteromer function is isolated using pharmacological methods. Cell lines are maintained in DMEM+5% Glutamax, the appropriate level of selective antibiotic, and 10% heat inactivated FBS.
(§2) Functional activity of compounds at the P2X receptor is determined by measuring their ability to inhibit agonist-induced calcium influx. Compounds are tested for antagonist activity against the P2X2/3 chimera, the P2X3 homomer, or the P2X2/3 heteromer. At the start of each screening day, the agonist EC50 is determined. Compound % inhibition or IC50s are subsequently determined using a predetermined agonist concentration (EC50-90 depending on cell line) as a stimulus. The agonists used are αβMeATP, ATP, or other ATP analogs. Compounds may be tested at concentrations ranging from 1 pM to 10 μM.
(§3) To test for antagonist activity, cells expressing the appropriate receptor are seeded onto 96 or 384 well plates 18-24 hours prior to assay. On the day of the assay, cells are loaded with calcium-sensitive fluorescent dye (e.g., Fluo-4 no wash reagent-Invitrogen cat#F36206, or the BD™ PBX Calcium Assay Kit-BD cat #640175) in Hank's Buffered Salt Solution (HBSS) with up to 10 mM supplemental CaCl2. Plates are incubated at 37° C. and then equilibrated at room temperature. Antagonism of agonist-induced calcium influx is measured using a fluorescent imaging plate reader (e.g. FLIPR^TETRA, Molecular Devices, Sunnyvale, Calif.). The assay comprises two stages: a pre-treatment phase followed by a treatment phase. Compounds may be tested as follows: For the pre-treatment phase, 50 μL of 3× concentration of test compound in HBSS is added to cells containing 100 μL of dye loading media to achieve a final concentration of 1× test compound. For the treatment phase, at a set interval after pre-treatment (1-30 minutes), 50 μL of 1× test compound plus 4× agonist solution is added, resulting in a final concentration of 1× compound and 1× agonist. Fluorescence is measured at 0.1-3 second intervals—with an excitation wavelength of 494 nm and an emission wavelength of 515 nm. Responses are measured as (peak fluorescence after agonist addition) minus (baseline fluorescence prior to treatment). Percent inhibition is calculated as follows:
(§4) [formula] IC50 values are determined by analyzing dose response data in a 4 parameter logistic fit using GraphPad Prizm.
(§5) The following compounds have been or can be prepared according to the synthetic methods described herein. A calcium uptake assay was performed as described above and the activity of each compound is expressed as follows: […]

hP2X2/3H = target: T2, hP2X2/3H (Homo sapiens, UniProt P56373+Q9UBL9); experiment: Calcium uptake assay (Ca influx), P2X antagonist assay, P2X2/3 heteromer; format: cell-based; conditions: inhibition of agonist-induced calcium influx
T2 construct: expressed in transfected cells
T2 sequence (P56373 1-397): T1 sequence (P56373 1-397)
T2 sequence (Q9UBL9 1-471): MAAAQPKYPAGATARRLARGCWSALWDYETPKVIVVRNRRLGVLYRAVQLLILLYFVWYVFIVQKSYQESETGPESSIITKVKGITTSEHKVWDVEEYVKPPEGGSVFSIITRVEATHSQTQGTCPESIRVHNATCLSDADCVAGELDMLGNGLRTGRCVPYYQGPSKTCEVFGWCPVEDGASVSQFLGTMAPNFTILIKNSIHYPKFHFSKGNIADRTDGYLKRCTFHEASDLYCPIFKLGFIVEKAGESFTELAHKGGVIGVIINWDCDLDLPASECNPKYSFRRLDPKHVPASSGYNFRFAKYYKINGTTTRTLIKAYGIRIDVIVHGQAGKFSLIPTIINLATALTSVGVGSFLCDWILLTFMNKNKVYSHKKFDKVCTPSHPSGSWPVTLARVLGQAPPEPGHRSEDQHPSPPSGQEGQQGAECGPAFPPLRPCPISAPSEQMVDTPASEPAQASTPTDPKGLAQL
Excerpt: as §1, §2, §3, §4, §5

Compound	IC50 (hP2X3)	IC50 (hP2X2/3H)
Cc1ccc(-c2cc(C(=O)NCc3cnc(C)nc3)cc(-c3ccc(C)cn3)c2)nc1 [Compound 29, 3,5-Bis-(5-methyl-pyridin-2-yl)-N-(2-methyl-pyrimidin-5-ylmethyl)-benzamide]	25.8 nM	219 nM
Cc1ccc(-c2cc(C(=O)N[C@H](C)c3cnc(C)nc3)cc(-c3ccccc3C#N)c2)nc1 [Compound 31, 2′-Cyano-5-(5-methyl-pyridin-2-yl)-biphenyl-3-carboxylic acid [(R)-1-(2-methyl-pyrimidin-5-yl)-ethyl]-amide]	14.2 nM	17.6 nM
Cc1ccc(-c2cc(C(=O)NCc3ccc(C)nc3)cc(-c3ccccn3)c2)nc1 [Compound 32, 3-(5-Methyl-pyridin-2-yl)-N-(6-methyl-pyridin-3-ylmethyl)-5-pyridin-2-yl-benzamide]	58 nM	997 nM
Cc1ccc(-c2cc(C(=O)N[C@H](C)c3cnc(C)nc3)cc(-c3ccccc3CO)c2)nc1 [Compound 34, 2′-Hydroxymethyl-5-(5-methyl-pyridin-2-yl)-biphenyl-3-carboxylic acid [(R)-1-(2-methyl-pyrimidin-5-yl)-ethyl]-amide]	21.1 nM	18.4 nM
Cc1ccc(-c2cc(C(=O)NCc3ccc(C)nc3)cc(-c3ccc(C)cc3C#N)c2)nc1 [Compound 35, 2′-Cyano-4′-methyl-5-(5-methyl-pyridin-2-yl)-biphenyl-3-carboxylic acid (6-methyl-pyridin-3-ylmethyl)-amide]	50.8 nM	35.6 nM
Cc1ccc(-c2cc(C(=O)N[C@H](C)c3cnc(C)nc3)cc(-c3cccc(F)c3F)c2)nc1 [Compound 36, 2′,3′-Difluoro-5-(5-methyl-pyridin-2-yl)-biphenyl-3-carboxylic acid [(R)-1-(2-methyl-pyrimidin-5-yl)-ethyl]-amide]	65.4 nM	32.8 nM
Cc1ccc(-c2cc(C(=O)NCc3ccc(C)nc3)cc(N3CCCCC3=O)c2)cc1 [Compound 37, 4′-Methyl-N-((6-methylpyridin-3-yl)methyl)-5-(2-oxopiperidin-1-yl)biphenyl-3-carboxamide]	48.6 nM	122 nM
Cc1ccc(-c2cc(C(=O)NCc3cnc(C)nc3)cc(N3CCCCC3=O)c2)cc1 [Compound 38]	80.7 nM	226 nM
Cc1ccc(-c2cc(C(=O)N[C@H](C)c3cnc(C)nc3)cc(N3CCCCC3=O)c2)cc1 [Compound 39, (R)-4′-Methyl-N-(1-(2-methylpyrimidin-5-yl)ethyl)-5-(2-oxopiperidin-1-yl)biphenyl-3-carboxamide]	38.8 nM	82 nM
Cc1ccc(-c2cc(C(=O)N[C@H](C)c3ccc(C)nc3)cc(N3CCCCC3=O)c2)cc1 [Compound 40, (R)-4′-Methyl-N-(1-(6-methylpyridin-3-yl)ethyl)-5-(2-oxopiperidin-1-yl)biphenyl-3-carboxamide]	26.3 nM	52.7 nM
Cc1ccc(-c2cc(C(=O)NCc3ccc(C)nc3)cc(-c3cnc(N)cn3)c2)nc1 [Compound 41, 3-(5-Amino-pyrazin-2-yl)-5-(5-methyl-pyridin-2-yl)-N-(6-methyl-pyridin-3-ylmethyl)-benzamide]	23.8 nM	169 nM
Cc1ccc(-c2cc(C(=O)NCc3ccc(C)nc3)cc(-c3cccnc3C#N)c2)nc1 [Compound 42, 3-(2-Cyano-pyridin-3-yl)-5-(5-methyl-pyridin-2-yl)-N-(6-methyl-pyridin-3-ylmethyl)-benzamide]	15.1 nM	50.5 nM

More lines, now with the values ahead:

IC50 (hP2X3)	IC50 (hP2X2/3H)	Compound
53.5 nM	70.9 nM	COc1ccccc1-c1cc(C(=O)NCc2ccc(C)nc2)cc(-c2ccc(C)cn2)c1 [Compound 18, 2′-Methoxy-5-(5-methyl-pyridin-2-yl)-biphenyl-3-carboxylic acid (6-methyl-pyridin-3-ylmethyl)-amide]
61.4 nM	238 nM	Cc1ccc(-c2cc(C(=O)NCc3ccc(C)nc3)cc(-c3ccncc3)c2)nc1 [Compound 19, 3-(5-Methyl-pyridin-2-yl)-N-(6-methyl-pyridin-3-ylmethyl)-5-pyridin-4-yl-benzamide]
38.5 nM	70.5 nM	Cc1ccc(-c2cc(C(=O)NCc3ccc(C)nc3)cc(-c3cccnc3)c2)nc1 [Compound 20, 3-(5-Methyl-pyridin-2-yl)-N-(6-methyl-pyridin-3-ylmethyl)-5-pyridin-3-yl-benzamide]
192 nM	914 nM	Cc1ccc(-c2cc(C(=O)NCc3ccc(C)nc3)cc(-c3ccccc3)c2)nc1 [Compound 21, 5-(5-Methyl-pyridin-2-yl)-biphenyl-3-carboxylic acid (6-methyl-pyridin-3-ylmethyl)-amide]
191 nM	143 nM	Cc1ccc(-c2cc(C(=O)NCc3ccc(C)nc3)cc(-c3ccncc3)c2)cc1 [Compound 22, 4′-Methyl-5-pyridin-4-yl-biphenyl-3-carboxylic acid (6-methyl-pyridin-3-ylmethyl)-amide]
431 nM	4160 nM	Cc1ccc(-c2cc(C(=O)NCc3ccc(C)nc3)cc(-c3cccc(N(C)C)c3)c2)cc1 [Compound 23, 3″-Dimethylamino-4-methyl-[1,1′;3′,1″]terphenyl-5′-carboxylic acid (6-methyl-pyridin-3-ylmethyl)-amide]
309 nM	503 nM	Cc1ccc(-c2cc(C(=O)NCc3ccc(C)nc3)cc(-c3ccc(CO)cc3)c2)cc1 [Compound 26, 4″-Hydroxymethyl-4-methyl-[1,1′;3′,1″]terphenyl-5′-carboxylic acid (6-methyl-pyridin-3-ylmethyl)-amide]
195 nM	142 nM	Cc1ccc(-c2cc(C(=O)NCc3ccc(C)nc3)cc(-c3ccccc3C#N)c2)cc1 [Compound 27, 2″-Cyano-4-methyl-[1,1′;3′,1″]terphenyl-5′-carboxylic acid (6-methyl-pyridin-3-ylmethyl)-amide]
66 nM	83.5 nM	Cc1ccc(-c2cc(C(=O)NCc3ccc(C)nc3)cc(-c3ccccc3CN(C)C)c2)nc1 [Compound 28, 2′-Dimethylaminomethyl-5-(5-methyl-pyridin-2-yl)-biphenyl-3-carboxylic acid (6-methyl-pyridin-3-ylmethyl)-amide]
122 nM	98.7 nM	Cc1ccc(-c2cc(C(=O)NCc3ccc(C)nc3)cc(-c3cccc(F)c3F)c2)nc1 [Compound 33, 2′,3′-Difluoro-5-(5-methyl-pyridin-2-yl)-biphenyl-3-carboxylic acid (6-methyl-pyridin-3-ylmethyl)-amide]
